Assays:
human Fpn Q99A = target: T1, human Fpn Q99A (Homo sapiens, UniProt Q9NP59, Q99A); assay: 55Fe efflux assay in Xenopus oocytes expressing Q99A mutant human Fpn; type: cell-based; details: fit by Eq. (2), ± SEM, read-out: K0.5Ca, half-maximal extracellular Ca2+ concentration for stimulation of 55Fe efflux
T1 construct: expressed in transfected cells; host or cells: Xenopus laevis oocytes injected with mutant Fpn RNA (pOX(+) vector)
T1 sequence (Q9NP59 1-571 Q99A): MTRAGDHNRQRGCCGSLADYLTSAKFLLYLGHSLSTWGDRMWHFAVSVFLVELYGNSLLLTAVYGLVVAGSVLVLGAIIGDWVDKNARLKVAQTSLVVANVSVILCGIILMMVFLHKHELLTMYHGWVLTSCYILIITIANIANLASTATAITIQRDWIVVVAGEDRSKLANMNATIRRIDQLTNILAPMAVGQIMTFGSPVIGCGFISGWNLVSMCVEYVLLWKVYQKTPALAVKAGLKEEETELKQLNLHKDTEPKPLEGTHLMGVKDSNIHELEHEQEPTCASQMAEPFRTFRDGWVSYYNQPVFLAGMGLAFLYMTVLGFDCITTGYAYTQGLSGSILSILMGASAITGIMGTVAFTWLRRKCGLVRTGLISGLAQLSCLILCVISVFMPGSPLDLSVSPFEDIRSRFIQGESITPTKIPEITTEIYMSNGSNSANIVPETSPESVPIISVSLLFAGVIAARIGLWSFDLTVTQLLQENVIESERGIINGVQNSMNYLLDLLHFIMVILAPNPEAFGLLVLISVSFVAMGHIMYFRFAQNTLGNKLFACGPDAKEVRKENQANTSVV
Procedure: We performed laparotomy and ovariectomy on adult female Xenopus laevis frogs (Nasco, Fort Atkinson, WI) under 2-aminoethylbenzoate methanesulfonate anesthesia (0.2%, by immersion, to effect) following a protocol approved by the University of Cincinnati Institutional Animal Care and Use Committee. Ovarian tissue was isolated and treated for 3 h with […] collagenase A (Roche Diagnostics Corp., Indianapolis, IN) in calcium-free-modified Barths’ medium (MBM) of composition 88 mM NaCl, 1 mM KCl, 2.4 mM NaHCO3, 1.57 mM MgSO4, 0.66 mM NaNO3, 10 mM 4-(2-hydroxyethyl)-1-piperazineethanesulfonic acid (HEPES), buffered to pH 7.5 by using 2-amino-2-hydroxymethyl-propane-1,3-diol (Tris base). […]
We measured metal efflux from oocytes expressing Fpn by using a radiotracer assay. […]
To initiate the efflux assay, we placed oocytes in standard efflux medium of composition 100 mM NaCl, 1 mM KCl, 2 mM CaCl2, 1 mM MgCl2, 0.5 mM bathophenanthroline disulfonic acid (BPS), 1 mM nitrilotriacetic acid (NTA) trisodium salt, 50 μg/ml apotransferrin (ApoTf) (R&D Systems Inc., Minneapolis, MN), buffered with 0–5 mM MES, and 0–5 mM N′,N′-diethylpiperazine to obtain pH 7.5, with the following exceptions. […] The corresponding oocytes were rinsed twice in ice-cold medium (without BPS), solubilized with 5% (w/v) sodium dodecyl sulfate, and counted (Nt). […]

BbFpn N196A = BbFpn N196A (Bdellovibrio bacteriovorus, UniProt Q6MLJ0, N196A); assay: Isothermal titration calorimetry, N196A BbFpn; type: binding, Bdellovibrio bacteriovorous
Chain of BbFpn N196A (Q6MLJ0 whole entry N196A): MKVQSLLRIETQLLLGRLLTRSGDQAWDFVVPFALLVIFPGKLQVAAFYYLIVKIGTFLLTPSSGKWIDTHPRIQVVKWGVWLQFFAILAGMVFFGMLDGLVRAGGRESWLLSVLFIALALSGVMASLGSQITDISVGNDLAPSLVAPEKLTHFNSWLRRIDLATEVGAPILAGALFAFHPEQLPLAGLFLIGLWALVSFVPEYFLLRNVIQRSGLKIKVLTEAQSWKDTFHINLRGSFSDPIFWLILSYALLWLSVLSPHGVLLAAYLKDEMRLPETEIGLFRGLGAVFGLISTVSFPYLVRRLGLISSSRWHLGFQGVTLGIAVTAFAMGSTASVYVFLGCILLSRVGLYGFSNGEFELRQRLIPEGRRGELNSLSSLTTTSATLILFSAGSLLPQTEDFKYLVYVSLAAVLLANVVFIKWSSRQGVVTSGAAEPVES

Q: Which EC50 (human Fpn Q99A) does the source give for `[Ca+2]` [Ca^2+, calcium] here?
A: 2400 µM

Q: And the “Binding to N196A BbFpn by ITC (in words)” value (BbFpn N196A)?
A: complete loss

Reference: PMC6079014, “Calcium is an essential cofactor for metal efflux by the ferroportin transporter family” (Nature Communications, 2018)
